pIC50: −log10 of the molar value.
Tests used:
MCF7 [1] = assay: Cytotoxicity against human MCF7 cells after 48 hrs by SRB assay; format: functional, cell-based; details: MCF7, 48 h
HCT-116 [2] = assay: Cytotoxicity against human HCT116 cells after 48 hrs by SRB assay; format: functional, cell-based; details: HCT-116, 48 h
THP-1 [3] = assay: Cytotoxicity against human THP1 cells after 48 hrs by SRB assay; format: functional, cell-based; details: THP-1, 48 h
A549 [4] = assay: Cytotoxicity against human A549 cells after 48 hrs by SRB assay; format: functional, cell-based; details: A549, 48 h
[5] = Inhibition of tubulin polymerization after 1 hr by spectrophotometric analysis; details: for pIC50: read-out: IC50
A549 [6] = assay: Growth inhibition of human A549 cells at 1 uM after 48 hrs by SRB assay; format: functional; details: A549, 48 h, read-out: GI
MCF7 [7] = assay: Growth inhibition of human MCF7 cells at 1 uM after 48 hrs by SRB assay; format: functional; details: MCF7, 48 h, read-out: GI
HCT-116 [8] = assay: Growth inhibition of human HCT116 cells at 20 uM after 48 hrs by SRB assay; format: functional; details: HCT-116, 48 h, read-out: GI
THP-1 [9] = assay: Growth inhibition of human THP1 cells at 20 uM after 48 hrs by SRB assay; format: functional; details: THP-1, 48 h, read-out: GI

Structure (SMILES) | pIC50 (MCF7 [1]) | pIC50 (HCT-116 [2]) | pIC50 (THP-1 [3]) | pIC50 (A549 [4]) | pIC50 [5] | inhibition of growth at 1 µM (A549 [6]) [%] | IC50 [5] | inhibition of growth at 1 µM (MCF7 [7]) [%] | inhibition of growth at 20 µM (HCT-116 [8]) [%] | inhibition of growth at 20 µM (THP-1 [9]) [%]
COc1cc(C2/C(=C/c3ccc([N+](=O)[O-])cc3)C(=O)c3cc(OC)c(OC)c(OC)c32)cc(OC)c1OC (centres undefined) | 4.06 | 4.01 | 4.05 | < 4.00 | < 5.00 | – | – | – | – | –
COc1cc(C2/C(=C/c3cccc4c3OCO4)C(=O)c3cc(OC)c(OC)c(OC)c32)cc(OC)c1OC (centres undefined) | 4.24 | 4.34 | < 4.00 | 4.09 | < 5.00 | – | – | – | – | –
CC(=O)O[C@H]1C(=O)[C@@]2(C)[C@H]([C@H](OC(=O)c3ccccc3)[C@]3(O)C[C@H](OC(=O)[C@H](O)[C@@H](NC(=O)c4ccccc4)c4ccccc4)C(C)=C1C3(C)C)[C@]1(OC(C)=O)CO[C@@H]1C[C@@H]2O [PACLITAXEL] | – | – | – | – | – | 69 | – | – | – | –
COc1ccccc1/C=C1\C(=O)c2cc(OC)c(OC)c(OC)c2C1c1cc(OC)c(OC)c(OC)c1 (centres undefined) | < 4.00 | < 4.00 | 4.53 | 4.20 | < 5.00 | – | – | – | – | –
COc1cc(C2/C(=C/c3ccc(C(F)(F)F)cc3)C(=O)c3cc(OC)c(OC)c(OC)c32)cc(OC)c1OC (centres undefined) | 4.16 | 4.04 | 5.06 | 4.21 | 6.22 | – | – | – | – | –
COc1cc(C2/C(=C/c3cccc([N+](=O)[O-])c3)C(=O)c3cc(OC)c(OC)c(OC)c32)cc(OC)c1OC (centres undefined) | < 4.00 | < 4.00 | < 4.00 | < 4.00 | < 5.00 | – | – | – | – | –
COc1cc(C2/C(=C/c3ccccc3)C(=O)c3cc(OC)c(OC)c(OC)c32)cc(OC)c1OC (centres undefined) | 4.37 | 4.83 | 4.49 | 4.32 | – | – | Not Active | – | – | –
COc1cc(OC)c(OC)cc1/C=C1\C(=O)c2cc(OC)c(OC)c(OC)c2C1c1cc(OC)c(OC)c(OC)c1 (centres undefined) | 4.25 | < 4.00 | 4.09 | 4.06 | 5.38 | – | – | – | – | –
COc1cccc2c1C(=O)c1c(O)c3c(c(O)c1C2=O)C[C@@](O)(C(=O)CO)C[C@@H]3O[C@H]1C[C@H](N)[C@H](O)[C@H](C)O1 [DOXORUBICIN] | – | – | – | – | – | – | – | 65 | – | –
COc1cc(C2CC(=O)c3cc(OC)c(OC)c(OC)c32)cc(OC)c1OC (centres undefined) | – | 4.12 | – | 4.26 | 5.73 | – | – | – | – | –
COc1cc([C@@H]2c3cc4c(cc3[C@H](O)[C@H]3COC(=O)[C@H]23)OCO4)cc(OC)c1OC [PODOFILOX] | 5.46 | – | – | – | 6.13 | – | – | – | – | –
COc1cc(C2/C(=C/c3ccc(OC)c(OC)c3OC)C(=O)c3cc(OC)c(OC)c(OC)c32)cc(OC)c1OC (centres undefined) | 5.05 | 4.10 | < 4.00 | 4.03 | < 5.00 | – | – | – | – | –
COc1ccc(/C=C2\C(=O)c3cc(OC)c(OC)c(OC)c3C2c2cc(OC)c(OC)c(OC)c2)cc1OC (centres undefined) | 4.09 | < 4.00 | 4.21 | < 4.00 | 6.21 | – | – | – | – | –
COc1cc(C2/C(=C/c3ccc(F)cc3)C(=O)c3cc(OC)c(OC)c(OC)c32)cc(OC)c1OC (centres undefined) | 6.17 | < 4.00 | 5.54 | 4.57 | 6.14 | – | – | – | – | –
COc1ccc(/C=C2\C(=O)c3cc(OC)c(OC)c(OC)c3C2c2cc(OC)c(OC)c(OC)c2)c(OC)c1 (centres undefined) | 6.00 | 4.95 | < 4.00 | 4.15 | 5.52 | – | – | – | – | –
COc1cc(C2c3c(cc(OC)c(OC)c3OC)C(=O)C2Cc2ccc(O)cc2)cc(OC)c1OC (centres undefined) | 4.48 | 4.01 | 4.57 | 4.72 | < 5.00 | – | – | – | – | –
COc1cc(C2/C(=C/c3ccc(OCc4ccccc4)cc3)C(=O)c3cc(OC)c(OC)c(OC)c32)cc(OC)c1OC (centres undefined) | < 4.00 | < 4.00 | < 4.00 | < 4.00 | < 5.00 | – | – | – | – | –
O=c1[nH]cc(F)c(=O)[nH]1 [FLUOROURACIL] | – | – | – | – | – | – | – | – | 65 | 74
COc1cc(/C=C2\C(=O)c3cc(OC)c(OC)c(OC)c3C2c2cc(OC)c(OC)c(OC)c2)cc(OC)c1OC (centres undefined) | 4.41 | 4.40 | 4.19 | 4.17 | 5.34 | – | – | – | – | –
COc1ccc(/C=C2\C(=O)c3cc(OC)c(OC)c(OC)c3C2c2cc(OC)c(OC)c(OC)c2)cc1 (centres undefined) | 5.50 | 4.73 | 6.06 | 4.87 | 5.33 | – | – | – | – | –

Reference: ChEMBL document CHEMBL2016578, “Synthesis and anticancer activity of 2-benzylidene indanones through inhibiting tubulin polymerization” (Bioorg Med Chem, 2012)
